Reference: PubChem BioAssay (NCI)
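In this assay, cells in 96-well plates receive the compound at five concentrations for 48 hours. Endpoints are linearly interpolated between the surrounding concentrations. TGI denotes the concentration required for complete inhibition of growth.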

Tests used:
Assay in all cases: NCI tumour cell line growth inhibition, 48 h
[1] = system: KM12 colon
[2] = system: SF-268 CNS
[3] = system: UACC-62 melanoma
[4] = system: SR leukemia
[5] = system: SK-MEL-28 melanoma
[6] = system: MALME-3M melanoma
[7] = system: SNB-19 CNS
[8] = system: MDA-N
[9] = system: HOP-62 NSCLC
[10] = system: NCI-H226 lung
[11] = system: DU-145 prostate
[12] = system: HS 578T breast
[13] = system: RPMI-8226 leukemia
[14] = system: OVCAR-5 ovarian
[15] = system: RXF 393 renal
[16] = system: HL-60(TB) leukemia
[17] = system: SF-539 CNS
[18] = system: NCI-H522 lung
[19] = system: MDA-MB-435
[20] = system: K-562 leukemia
[21] = system: UACC-257 melanoma
[22] = system: PC-3 prostate
[23] = system: ACHN renal
[24] = system: SF-295 CNS
[25] = system: SK-MEL-2 melanoma
[26] = system: UO-31 renal
[27] = system: T-47D breast
[28] = system: HCT-15 colon
[29] = system: SK-OV-3 ovarian
[30] = system: HT29 colon
[31] = system: MDA-MB-231 breast
[32] = system: CCRF-CEM leukemia
[33] = system: EKVX NSCLC
[34] = system: NCI/ADR-RES ovarian
[35] = system: HCT-116 colon
[36] = system: CAKI-1 renal
[37] = system: U251 CNS
[38] = system: M14 melanoma
[39] = system: SK-MEL-5 melanoma
[40] = system: SNB-75 CNS
[41] = system: MCF7 breast
[42] = system: NCI-H23 lung
[43] = system: OVCAR-8 ovarian
[44] = system: A498 renal
[45] = system: MOLT-4 leukemia
[46] = system: SN12C renal
[47] = system: SW-620 colon
[48] = system: TK-10 renal
[49] = system: A549 NSCLC
[50] = system: IGROV1 ovarian
[51] = system: HOP-92 NSCLC
[52] = system: COLO 205 colon
[53] = system: NCI-H460 lung
[54] = system: HCC-2998 colon
[55] = system: 786-0 renal
[56] = system: OVCAR-4 ovarian
[57] = system: OVCAR-3 ovarian
[58] = system: LOX IMVI melanoma
[59] = system: BT-549 breast

Measured: TGI

Cc1ccc(S(=O)(=O)NNC(=O)Nc2cccc(C(F)(F)F)c2)cc1
53.7 µM: [40]
not listed: [57] | [58] | [59]
> 100 µM: all other assays above

CN(C)CCNc1ccc(NCC[N+](C)(C)Cc2ccc([N+](=O)[O-])cc2)c2c1C(=O)c1c(O)ccc(O)c1C2=O
40.9 µM: [59]
47.5 µM: [39]
8.8 µM: [45]
69 µM: [8]
not listed: [4] | [6] | [14] | [15] | [17] | [18] | [21] | [23] | [24] | [26] | [29] | [38] | [41] | [48] | [49] | [51] | [53] | [54]
> 100 µM: all other assays above
